13 compounds from PubChem BioAssay AID270 (DTP/NCI, 2004) can be followed below.

This assay deals with BDF1 mice, s.c. Lewis lung carcinoma, T/C %. In words: NCI In Vivo Anticancer Drug Screen. Data for tumor model Lewis Lung Carcinoma (subcutaneous) in B6D2F1 (BDF1) mice. An outline of the steps:
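The value reflects a ratio in which the treated cohort's survival time or tumour size is compared against mice receiving only vehicle.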

Where [1] appears, read: endpoint: mean tumor weight, dose: 12.5 mg/kg/injection, schedule: Q01DX011 (ip), vehicle: saline, higher = larger tumour.
The mark [2] stands for this setting: endpoint: mean tumor weight, dose: 25.0 mg/kg/injection, schedule: Q01DX011 (ip), vehicle: saline, higher = larger tumour.
[3] abbreviates: endpoint: mean tumor weight, dose: 50.0 mg/kg/injection, schedule: Q01DX011 (ip), vehicle: saline, higher = larger tumour.
The mark [4] stands for this setting: endpoint: median survival time, dose: 12.5 mg/kg/injection, schedule: Q01DX009 (ip), vehicle: saline, higher = longer survival.
[5] abbreviates: endpoint: median survival time, dose: 50.0 mg/kg/injection, schedule: Q01DX009 (ip), vehicle: saline, higher = longer survival.
Setting [6] is: endpoint: median survival time, dose: 25.0 mg/kg/injection, schedule: Q01DX009 (ip), vehicle: Klucel (hydroxypropylcellulose) (HPC), higher = longer survival.

Structures are written as SMILES. “And” between values parts separate entries of the source, which are not always exact repeats. Identical values can stand only once. Results filed as inconclusive are left out.

Regarding `Nc1nc(SN=Nc2ccc(S(N)(=O)=O)cc2)c2[nH]cnc2n1`, the T/C was 64 % of control (endpoint: mean tumor weight, dose: 0.6 mg/kg/injection, schedule: Q01DX011 (ip), vehicle: saline, higher = larger tumour); 43 % of control (endpoint: mean tumor weight, dose: 1.0 mg/kg/injection, schedule: Q01DX011 (ip), vehicle: saline, higher = larger tumour); 93 % of control (endpoint: mean tumor weight, dose: 1.5 mg/kg/injection, schedule: Q01DX011 (ip), vehicle: saline, higher = larger tumour); 67 % of control (endpoint: mean tumor weight, dose: 2.2 mg/kg/injection, schedule: Q01DX011 (ip), vehicle: other, higher = larger tumour); 52 % of control and 67 % of control (endpoint: mean tumor weight, dose: 2.2 mg/kg/injection, schedule: Q01DX011 (ip), vehicle: saline, higher = larger tumour); 72 % of control (endpoint: mean tumor weight, dose: 3.3 mg/kg/injection, schedule: Q01DX011 (ip), vehicle: other, higher = larger tumour). In addition, the T/C was 36 % of control (endpoint: mean tumor weight, dose: 3.3 mg/kg/injection, schedule: Q01DX011 (ip), vehicle: saline, higher = larger tumour); 35 % of control (endpoint: mean tumor weight, dose: 5.0 mg/kg/injection, schedule: Q01DX011 (ip), vehicle: other, higher = larger tumour); 40 % of control (endpoint: mean tumor weight, dose: 5.0 mg/kg/injection, schedule: Q01DX011 (ip), vehicle: saline, higher = larger tumour); 11 % of control (endpoint: mean tumor weight, dose: 7.5 mg/kg/injection, schedule: Q01DX011 (ip), vehicle: other, higher = larger tumour); 19 % of control (endpoint: mean tumor weight, dose: 7.5 mg/kg/injection, schedule: Q01DX011 (ip), vehicle: saline, higher = larger tumour).
With `CC/C(=C(\CC)c1ccc(OC)cc1)c1ccc(O)cc1`, the T/C is, setting by setting: (endpoint: mean tumor weight, dose: 15.0 mg/kg/injection, schedule: Q01DX011 (sc), vehicle: steriod suspending solution, higher = larger tumour) 54 % of control; (endpoint: mean tumor weight, dose: 30.0 mg/kg/injection, schedule: Q01DX011 (sc), vehicle: steriod suspending solution, higher = larger tumour) 35 % of control; (endpoint: mean tumor weight, dose: 60.0 mg/kg/injection, schedule: Q01DX011 (sc), vehicle: steriod suspending solution, higher = larger tumour) 23 % of control; (endpoint: mean tumor weight, dose: 100.0 mg/kg/injection, schedule: Q01DX011 (sc), vehicle: steriod suspending solution, higher = larger tumour) 7 % of control; (endpoint: mean tumor weight, dose: 120.0 mg/kg/injection, schedule: Q01DX011 (sc), vehicle: steriod suspending solution, higher = larger tumour) 31 % of control and 36 % of control; (endpoint: mean tumor weight, dose: 200.0 mg/kg/injection, schedule: Q01DX011 (sc), vehicle: steriod suspending solution, higher = larger tumour) 22 % of control. In addition, the T/C was 31 % of control (endpoint: mean tumor weight, dose: 240.0 mg/kg/injection, schedule: Q01DX011 (sc), vehicle: steriod suspending solution, higher = larger tumour) and 22 % of control (endpoint: mean tumor weight, dose: 300.0 mg/kg/injection, schedule: Q01DX011 (sc), vehicle: steriod suspending solution, higher = larger tumour).
In the case of `CS(=O)(=O)OCCC(=O)N1CCN(C(=O)CCOS(C)(=O)=O)CC1`, the T/C is 85 % of control under setting [1]; 66 % of control under setting [2]; 85 % of control under setting [3]; 46 % of control (endpoint: mean tumor weight, dose: 100.0 mg/kg/injection, schedule: Q01DX011 (ip), vehicle: saline, higher = larger tumour); 109 % of control (endpoint: median survival time, dose: 1.56 mg/kg/injection, schedule: Q01DX009 (ip), vehicle: saline, higher = longer survival); 103 % of control (endpoint: median survival time, dose: 3.12 mg/kg/injection, schedule: Q01DX009 (ip), vehicle: saline, higher = longer survival). The T/C by setting is: (endpoint: median survival time, dose: 6.25 mg/kg/injection, schedule: Q01DX009 (ip), vehicle: saline, higher = longer survival) 106 % of control; under setting [4], 103 % of control; (endpoint: median survival time, dose: 25.0 mg/kg/injection, schedule: Q01DX009 (ip), vehicle: saline, higher = longer survival) 102 % of control; under setting [5], 114 % of control.
For the compound `O=C(O)C(=O)c1ccc(-c2ccccc2)cc1`, the T/C reads like this: (endpoint: mean tumor weight, dose: 35.0 mg/kg/injection, schedule: Q01DX011 (ip), vehicle: methylcellulose (MC), higher = larger tumour) 82 % of control; (endpoint: mean tumor weight, dose: 50.0 mg/kg/injection, schedule: Q01DX011 (ip), vehicle: methylcellulose (MC), higher = larger tumour) 68 % of control; (endpoint: mean tumor weight, dose: 75.0 mg/kg/injection, schedule: Q01DX011 (ip), vehicle: methylcellulose (MC), higher = larger tumour) 52 % of control; (endpoint: mean tumor weight, dose: 110.0 mg/kg/injection, schedule: Q01DX011 (ip), vehicle: methylcellulose (MC), higher = larger tumour) 52 % of control.
For the compound `O=P1(NCCCl)OCCCN1CCCl` (stereo unspecified), the T/C was 114 % of control under setting [1]; 14 % of control under setting [2]; 2 % of control under setting [3]; 100 % of control under setting [6]; 106 % of control (endpoint: median survival time, dose: 50.0 mg/kg/injection, schedule: Q01DX001 (ip), vehicle: saline, higher = longer survival); 150 % of control (endpoint: median survival time, dose: 50.0 mg/kg/injection, schedule: Q01DX009 (ip), vehicle: Klucel (hydroxypropylcellulose) (HPC), higher = longer survival). The T/C was 124 % of control (endpoint: median survival time, dose: 100.0 mg/kg/injection, schedule: Q01DX001 (ip), vehicle: saline, higher = longer survival); 200 % of control and 243 % of control (endpoint: median survival time, dose: 200.0 mg/kg/injection, schedule: Q01DX001 (ip), vehicle: saline, higher = longer survival); 200 % of control and 243 % of control (endpoint: median survival time, dose: 400.0 mg/kg/injection, schedule: Q01DX001 (ip), vehicle: saline, higher = longer survival); 243 % of control (endpoint: median survival time, dose: 800.0 mg/kg/injection, schedule: Q01DX001 (ip), vehicle: saline, higher = longer survival).
For the compound `CCCCOC(=O)Nc1ccc(OCC)cc1`, the T/C (endpoint: mean tumor weight, dose: 35.0 mg/kg/injection, schedule: Q01DX011 (ip), vehicle: carboxymethylcellulose (CMC), higher = larger tumour) is 63 % of control; the T/C (endpoint: mean tumor weight, dose: 70.0 mg/kg/injection, schedule: Q01DX011 (ip), vehicle: carboxymethylcellulose (CMC), higher = larger tumour) was 85 % of control; the T/C (endpoint: mean tumor weight, dose: 140.0 mg/kg/injection, schedule: Q01DX011 (ip), vehicle: carboxymethylcellulose (CMC), higher = larger tumour) was 68 % of control; the T/C (endpoint: mean tumor weight, dose: 280.0 mg/kg/injection, schedule: Q01DX011 (ip), vehicle: carboxymethylcellulose (CMC), higher = larger tumour) is 69 % of control.
`Nc1ncnc2c(C3OC(CO)C(O)C3O)[nH]nc12` (stereo unspecified): under “endpoint: mean tumor weight, dose: 10.5 mg/kg/injection, schedule: Q01DX011 (ip), vehicle: carboxymethylcellulose (CMC), higher = larger tumour”, the T/C is 66 % of control.
In the case of `C=C1C(=O)OC2CC1C(O)C/C(C)=C/CC/C(C)=C/C(O)CC2C` (stereo unspecified), the T/C was 90 % of control (endpoint: median survival time, dose: 1.56 mg/kg/injection, schedule: Q01DX009 (ip), vehicle: Klucel (hydroxypropylcellulose) (HPC), higher = longer survival); 108 % of control (endpoint: median survival time, dose: 3.12 mg/kg/injection, schedule: Q01DX009 (ip), vehicle: Klucel (hydroxypropylcellulose) (HPC), higher = longer survival); 93 % of control (endpoint: median survival time, dose: 6.25 mg/kg/injection, schedule: Q01DX009 (ip), vehicle: Klucel (hydroxypropylcellulose) (HPC), higher = longer survival); 92 % of control (endpoint: median survival time, dose: 12.5 mg/kg/injection, schedule: Q01DX009 (ip), vehicle: Klucel (hydroxypropylcellulose) (HPC), higher = longer survival); 99 % of control under setting [6].
Consider `NCCCOc1ccc([N+](=O)[O-])cc1Cl`, for which the T/C under setting [4] was 87 % of control; the T/C under setting [5] was 100 % of control and 120 % of control and 121 % of control; the T/C (endpoint: median survival time, dose: 100.0 mg/kg/injection, schedule: Q01DX009 (ip), vehicle: saline, higher = longer survival) was 87 % of control and 101 % of control and 112 % of control.
Consider `CC(=O)OC(C)(C)/C=C/C(=O)[C@](C)(O)[C@H]1[C@H](O)C[C@@]2(C)[C@@H]3CC=C4[C@@H](C[C@H](O)C(=O)C4(C)C)[C@]3(CO)C(=O)C[C@]12C`, for which the T/C (endpoint: mean tumor weight, dose: 0.57 mg/kg/injection, schedule: Q01DX011 (ip), vehicle: saline, higher = larger tumour) is 93 % of control.
For `N=C(N)Sc1cc(O)ccc1O`, the T/C reads like this: (endpoint: median survival time, dose: 12.5 mg/kg/injection, schedule: Q01DX009 (ip), vehicle: other, higher = longer survival) 102 % of control; (endpoint: median survival time, dose: 18.75 mg/kg/injection, schedule: Q01DX009 (ip), vehicle: saline, higher = longer survival) 120 % of control; (endpoint: median survival time, dose: 25.0 mg/kg/injection, schedule: Q01DX009 (ip), vehicle: other, higher = longer survival) 103 % of control; (endpoint: median survival time, dose: 37.5 mg/kg/injection, schedule: Q01DX009 (ip), vehicle: saline, higher = longer survival) 92 % of control; (endpoint: median survival time, dose: 50.0 mg/kg/injection, schedule: Q01DX009 (ip), vehicle: other, higher = longer survival) 93 % of control; (endpoint: median survival time, dose: 100.0 mg/kg/injection, schedule: Q01DX009 (ip), vehicle: other, higher = longer survival) 100 % of control. Moreover, the T/C reads like this: (endpoint: median survival time, dose: 200.0 mg/kg/injection, schedule: Q01DX009 (ip), vehicle: other, higher = longer survival) 93 % of control; (endpoint: median survival time, dose: 300.0 mg/kg/injection, schedule: Q01DX009 (ip), vehicle: saline, higher = longer survival) 91 % of control.
On to `CC(C)n1c2c([n+](C)c1/C=C/c1ccccc1)C(=O)c1ccccc1C2=O`, for which the T/C runs as follows: (endpoint: median survival time, dose: 0.5 mg/kg/injection, schedule: Q01DX009 (ip), vehicle: saline, higher = longer survival) 96 % of control; (endpoint: median survival time, dose: 1.0 mg/kg/injection, schedule: Q01DX009 (ip), vehicle: saline, higher = longer survival) 110 % of control.
On to `COc1ccc(-c2cc(=O)c3ccccc3o2)c(OC)c1OC`, for which the T/C is, setting by setting: (endpoint: mean tumor weight, dose: 50.0 mg/kg/injection, schedule: Q01DX010 (ip), vehicle: saline, higher = larger tumour) 95 % of control; (endpoint: mean tumor weight, dose: 100.0 mg/kg/injection, schedule: Q01DX010 (ip), vehicle: saline, higher = larger tumour) 101 % of control; (endpoint: mean tumor weight, dose: 200.0 mg/kg/injection, schedule: Q01DX010 (ip), vehicle: saline, higher = larger tumour) 83 % of control; (endpoint: mean tumor weight, dose: 400.0 mg/kg/injection, schedule: Q01DX010 (ip), vehicle: saline, higher = larger tumour) 99 % of control.
